Data taken from PubChem BioAssay AID1963867 (Molecular Pharmacology Branch, DTP, NCI, 2024).
Where “and” joins values, the source holds several entries; their conditions need not be identical. Equal entries are not always repeated. Calls of active or inactive are those of the source. The calls were made as follows: active = viability on the fitted dose curve at most 10% of control; inactive = the rest.

System: KRAS-mutant PDC tumor spheroid with HUVEC/MSC, viability
Experiment: Anticancer human tumor 327498-153-R-J2-PDC patient-derived uterine carcinosarcoma cell line growth inhibition [KRAS2]
Settings: for viability, T/C: stronger effect = lower value
Summary of the method: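 KRAS-mutant tumor cells were grown as spheroids with HUVEC endothelial cells and human MSCs as stroma. Targeted agents were tested alone and with KRAS pathway inhibitors. Doses started at or near clinical Cmax, or 10 microM, descending half-log.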

[1] = curve of first compound, second compound 0.1 µM
[2] = curve of first compound, second compound 0.316 µM
[3] = curve of first compound, second compound 1 µM
[4] = curve of first compound, second compound 3.16 µM
[5] = curve of first compound, second compound 10 µM
[6] = second compound 0.1 µM, first compound 0.0316 µM
[7] = second compound 0.1 µM, first compound 0.1 µM
[8] = second compound 0.1 µM, first compound 0.316 µM
[9] = second compound 0.1 µM, first compound 1 µM
[10] = second compound 0.1 µM, first compound 3.16 µM
[11] = second compound 0.1 µM, first compound 10 µM
[12] = second compound 0.316 µM, first compound 0.0316 µM
[13] = second compound 0.316 µM, first compound 0.1 µM
[14] = second compound 0.316 µM, first compound 0.316 µM
[15] = second compound 0.316 µM, first compound 1 µM
[16] = second compound 0.316 µM, first compound 3.16 µM
[17] = second compound 0.316 µM, first compound 10 µM
[18] = second compound 1 µM, first compound 0.0316 µM
[19] = second compound 1 µM, first compound 0.1 µM
[20] = second compound 1 µM, first compound 0.316 µM
[21] = second compound 1 µM, first compound 1 µM
[22] = second compound 1 µM, first compound 3.16 µM
[23] = second compound 1 µM, first compound 10 µM
[24] = second compound 3.16 µM, first compound 0.0316 µM
[25] = second compound 3.16 µM, first compound 0.1 µM
[26] = second compound 3.16 µM, first compound 0.316 µM
[27] = second compound 3.16 µM, first compound 1 µM
[28] = second compound 3.16 µM, first compound 3.16 µM
[29] = second compound 3.16 µM, first compound 10 µM
[30] = second compound 10 µM, first compound 0.0316 µM
[31] = second compound 10 µM, first compound 0.1 µM
[32] = second compound 10 µM, first compound 0.316 µM
[33] = second compound 10 µM, first compound 1 µM
[34] = second compound 10 µM, first compound 3.16 µM
[35] = second compound 10 µM, first compound 10 µM
[36] = second compound 0.1 µM, first compound 0.000316 µM
[37] = second compound 0.1 µM, first compound 0.001 µM
[38] = second compound 0.1 µM, first compound 0.00316 µM
[39] = second compound 0.1 µM, first compound 0.01 µM
[40] = second compound 0.316 µM, first compound 0.000316 µM
[41] = second compound 0.316 µM, first compound 0.001 µM
[42] = second compound 0.316 µM, first compound 0.00316 µM
[43] = second compound 0.316 µM, first compound 0.01 µM
[44] = second compound 1 µM, first compound 0.000316 µM
[45] = second compound 1 µM, first compound 0.001 µM
[46] = second compound 1 µM, first compound 0.00316 µM
[47] = second compound 1 µM, first compound 0.01 µM
[48] = second compound 3.16 µM, first compound 0.000316 µM
[49] = second compound 3.16 µM, first compound 0.001 µM
[50] = second compound 3.16 µM, first compound 0.00316 µM
[51] = second compound 3.16 µM, first compound 0.01 µM
[52] = second compound 10 µM, first compound 0.000316 µM
[53] = second compound 10 µM, first compound 0.001 µM
[54] = second compound 10 µM, first compound 0.00316 µM
[55] = second compound 10 µM, first compound 0.01 µM
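For IC50 in this document: spheroids exposed to agents for seven days before reading.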
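For viability, T/C in this document: spheroids exposed to agents for seven days before reading; 100% = DMSO vehicle wells so lower means fewer viable cells.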

O=C(c1cc(Cc2n[nH]c(=O)c3ccccc23)ccc1F)N1CCN(C(=O)C2CC2)CC1 + CNCc1ccccc1-c1csc(C(C)Nc2nc(C)nc3cc(OC)c(OC)cc23)c1
1810 nM: IC50 [2]
inactive: viability, T/C [6] 83.4% | viability, T/C [7] 80.3% | viability, T/C [8] 82.8% | viability, T/C [9] 73.6% | viability, T/C [10] 36.1% | viability, T/C [11] 19.2% | viability, T/C [12] 86.6% | viability, T/C [13] 87.4% | viability, T/C [14] 76.7% | viability, T/C [15] 69.5% | viability, T/C [16] 32.4% | viability, T/C [17] 19.1% | viability, T/C [18] 90.8% | viability, T/C [19] 81.8% | viability, T/C [20] 81.3% | viability, T/C [21] 66.3% | viability, T/C [22] 33.2% | viability, T/C [23] 19.1% | viability, T/C [24] 57.7% | viability, T/C [25] 67.8% | viability, T/C [26] 62%
active: viability, T/C [27] 0.7% | viability, T/C [28] 25.9% | viability, T/C [29] 0.17% | viability, T/C [30] 2.32% | viability, T/C [31] 0.2% | viability, T/C [32] 1.62% | viability, T/C [33] 0.19% | viability, T/C [34] 0.15% | viability, T/C [35] 1.22%
1750 nM: IC50 [3]
411 nM: IC50 [4]
< 31.6 nM: IC50 [5]
2060 nM: IC50 [1]

CCN1CCN(Cc2ccc(Nc3ncc(F)c(-c4cc(F)c5nc(C)n(C(C)C)c5c4)n3)nc2)CC1
> 1000 nM: IC50 (curve of compound)
inactive: viability, T/C (compound 0.00316 µM) 88.7% [middle of 5 runs] | viability, T/C (compound 0.01 µM) 81.7% [middle of 5 runs] | viability, T/C (compound 0.0316 µM) 65.9% [middle of 5 runs] | viability, T/C (compound 0.1 µM) 61% [middle of 5 runs] | viability, T/C (compound 0.316 µM) 59.6% [middle of 5 runs] | viability, T/C (compound 1 µM) 58.9% [middle of 5 runs]

COc1cc2nc(C)nc(NC(C)c3cc(N)cc(C(F)(F)F)c3)c2cc1OC1CCOC1 (centres undefined)
> 10000 nM and 8250 nM and 8160 nM: IC50 (compound alone, run of 07/19/2021)
> 10000 nM and 9500 nM: IC50 (compound alone, run of 07/12/2021)
> 10000 nM: IC50 (compound alone, run of 07/26/2021)
inactive: outcome (compound 0.316 µM) | viability, T/C (compound 3.16 µM) 65.2% [middle of 17 runs]

COc1cc(Nc2ncc3c(n2)-c2ccc(Cl)cc2C(c2c(F)cccc2OC)=NC3)ccc1C(=O)O + CNCc1ccccc1-c1csc(C(C)Nc2nc(C)nc3cc(OC)c(OC)cc23)c1
inactive: viability, T/C [6] 16.1% | viability, T/C [7] 10.8% | viability, T/C [8] 9.69% | viability, T/C [9] 10.2% | viability, T/C [10] 12% | viability, T/C [11] 12.3% | viability, T/C [12] 15.6% | viability, T/C [13] 11.1% | viability, T/C [14] 10.5% | viability, T/C [15] 10.8% | viability, T/C [16] 12.9% | viability, T/C [17] 12.8% | viability, T/C [18] 14.7% | viability, T/C [19] 10.7% | viability, T/C [20] 8.64% | viability, T/C [21] 8.26% | viability, T/C [22] 11.9% | viability, T/C [23] 11.6%
< 31.6 nM: IC50 [1] | IC50 [2] | IC50 [3] | IC50 [4] | IC50 [5]
active: viability, T/C [24] 0.1% | viability, T/C [25] 0.06% | viability, T/C [26] 0.05% | viability, T/C [27] 0.05% | viability, T/C [28] 0.06% | viability, T/C [29] 0.15% | viability, T/C [30] 0.14% | viability, T/C [31] 0.13% | viability, T/C [32] 0.14% | viability, T/C [33] 0.13% | viability, T/C [34] 0.63% | viability, T/C [35] 0.22%

C=CC(=O)N1CCN(c2nc(OCC3CCCN3C)nc3c2CCN(c2cccc4cccc(C)c24)C3)CC1CC#N (centres undefined)
inactive: viability, T/C (compound 0.316 µM) 57.6% [middle of 16 runs] | viability, T/C (compound 1 µM) 49.2% [middle of 17 runs]

COC(=O)c1ccc2c(C(=Nc3ccc(N(C)C(=O)CN4CCN(C)CC4)cc3)c3ccccc3)c(O)[nH]c2c1 + C=CC(=O)N1CCN(c2nc(=O)n(-c3c(C)ccnc3C(C)C)c3nc(-c4c(O)cccc4F)c(F)cc23)C(C)C1
68.6 nM: IC50 [1]
active: viability, T/C [11] 8.12% | viability, T/C [16] 6.86% | viability, T/C [17] 4.83% | viability, T/C [22] 7.4% | viability, T/C [23] 3.38% | viability, T/C [28] 6.26% | viability, T/C [29] 4.47% | viability, T/C [34] 3.4% | viability, T/C [35] 1.04%
inactive: viability, T/C [6] 55.6% | viability, T/C [7] 47% | viability, T/C [8] 33.8% | viability, T/C [9] 21.5% | viability, T/C [10] 8.48% | viability, T/C [12] 48.5% | viability, T/C [13] 46.1% | viability, T/C [14] 31.3% | viability, T/C [15] 12.5% | viability, T/C [18] 46% | viability, T/C [19] 44.4% | viability, T/C [20] 27.5% | viability, T/C [21] 16.6% | viability, T/C [24] 42.4% | viability, T/C [25] 35% | viability, T/C [26] 19.1% | viability, T/C [27] 11.5% | viability, T/C [30] 39% | viability, T/C [31] 31.1% | viability, T/C [32] 22.9% | viability, T/C [33] 13.2%
< 31.6 nM: IC50 [2] | IC50 [3] | IC50 [4] | IC50 [5]

CC(C)n1nc(-c2ccc3oc(N)nc3c2)c2c(N)ncnc21 + CNCc1ccccc1-c1csc(C(C)Nc2nc(C)nc3cc(OC)c(OC)cc23)c1
< 0.316 nM: IC50 [4] | IC50 [5]
active: viability, T/C [7] 7.32% | viability, T/C [13] 6.25% | viability, T/C [18] 7.89% | viability, T/C [19] 4.25% | viability, T/C [49] 0.14% | viability, T/C [50] 1.09% | viability, T/C [51] 0.2% | viability, T/C [24] 0.04% | viability, T/C [25] 1.36% | viability, T/C [52] 0.49% | viability, T/C [53] 0.14% | viability, T/C [54] 0.93% | viability, T/C [55] 0.51% | viability, T/C [30] 0.24% | viability, T/C [31] 0.39%
4.87 nM: IC50 [1]
inactive: viability, T/C [36] 87.6% | viability, T/C [37] 80.3% | viability, T/C [38] 59.9% | viability, T/C [39] 33.4% | viability, T/C [6] 13.8% | viability, T/C [40] 76.8% | viability, T/C [41] 73.2% | viability, T/C [42] 56% | viability, T/C [43] 30.4% | viability, T/C [12] 10.3% | viability, T/C [44] 68.2% | viability, T/C [45] 63.9% | viability, T/C [46] 43.4% | viability, T/C [47] 25.6% | viability, T/C [48] 20.1%
2.3 nM: IC50 [3]
4.21 nM: IC50 [2]

CC(C)n1nc(-c2ccc3oc(N)nc3c2)c2c(N)ncnc21 + COc1cc2nc(C)nc(NC(C)c3cc(N)cc(C(F)(F)F)c3)c2cc1OC1CCOC1
active: viability, T/C [7] 6.27% | viability, T/C [13] 6.67% | viability, T/C [19] 6.87% | viability, T/C [24] 7.65% | viability, T/C [25] 4.15% | viability, T/C [30] 3.51% | viability, T/C [31] 1.94%
< 0.316 nM: IC50 [5]
0.824 nM: IC50 [4]
4.34 nM: IC50 [1]
1.98 nM: IC50 [3]
2.29 nM: IC50 [2]
inactive: viability, T/C [36] 77.5% | viability, T/C [37] 71.7% | viability, T/C [38] 59.1% | viability, T/C [39] 27.3% | viability, T/C [6] 10.2% | viability, T/C [40] 71.5% | viability, T/C [41] 60.4% | viability, T/C [42] 46.5% | viability, T/C [43] 23.3% | viability, T/C [12] 8.8% | viability, T/C [44] 60.2% | viability, T/C [45] 63.7% | viability, T/C [46] 40.1% | viability, T/C [47] 26.3% | viability, T/C [18] 8.62% | viability, T/C [48] 52.6% | viability, T/C [49] 50.1% | viability, T/C [50] 36.1% | viability, T/C [51] 17.1% | viability, T/C [52] 38.8% | viability, T/C [53] 35.5% | viability, T/C [54] 23.4% | viability, T/C [55] 17.4%
